Results as given in the kinase profiling compilation of Christmann-Franck et al. (2016).

Assays:
Assay in all cases: KINOMEscan competition binding
Conditions in all cases: compound 10.0 µM
[1] = target: JAK2 JH1 catalytic (human) (UniProt O60674)
CDK5 (human) = CDK5 (human) (UniProt Q00535)
MATK (human) = MATK (human) (UniProt P42679)
ICK (human) = ICK (human) (UniProt Q9UPZ9)
CSF1R (human) = CSF1R (human) (UniProt P07333)
MAP3K5 (human) = MAP3K5 (human) (UniProt Q99683)
MELK (human) = MELK (human) (UniProt Q14680)
RIPK1 (human) = RIPK1 (human) (UniProt Q13546)
PRKG1 (human) = PRKG1 (human) (UniProt Q13976)
[2] = test system: RET (human), P07949 [V804L]
[3] = test system: EGFR (human), P00533 [L858R]
PRKACA (human) = PRKACA (human) (UniProt P17612)
PTK2 (human) = PTK2 (human) (UniProt Q05397)
IKBKB (human) = IKBKB (human) (UniProt O14920)
MAST1 (human) = MAST1 (human) (UniProt Q9Y2H9)
MAPK13 (human) = MAPK13 (human) (UniProt O15264)
RIOK1 (human) = RIOK1 (human) (UniProt Q9BRS2)
CSNK1G1 (human) = CSNK1G1 (human) (UniProt Q9HCP0)
Chain of CSNK1G1 (human) (Q9HCP0 whole entry, looked up): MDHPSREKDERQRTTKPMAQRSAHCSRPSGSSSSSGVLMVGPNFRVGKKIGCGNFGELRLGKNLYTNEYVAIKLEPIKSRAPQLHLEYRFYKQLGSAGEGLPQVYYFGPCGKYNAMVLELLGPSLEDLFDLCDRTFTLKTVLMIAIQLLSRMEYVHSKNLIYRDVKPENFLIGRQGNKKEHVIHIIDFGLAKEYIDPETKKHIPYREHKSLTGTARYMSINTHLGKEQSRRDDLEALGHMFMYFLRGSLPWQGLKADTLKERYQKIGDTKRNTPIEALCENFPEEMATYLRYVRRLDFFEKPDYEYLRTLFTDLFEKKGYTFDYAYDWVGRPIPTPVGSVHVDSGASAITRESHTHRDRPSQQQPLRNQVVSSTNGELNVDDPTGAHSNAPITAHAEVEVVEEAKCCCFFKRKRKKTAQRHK

CDC42BPB (human) = CDC42BPB (human) (UniProt Q9Y5S2)
DAPK1 (human) = DAPK1 (human) (UniProt P53355)
PAK4 (human) = PAK4 (human) (UniProt O96013)
FES (human) = FES (human) (UniProt P07332)
Chain of FES (human) (P07332 whole entry, looked up): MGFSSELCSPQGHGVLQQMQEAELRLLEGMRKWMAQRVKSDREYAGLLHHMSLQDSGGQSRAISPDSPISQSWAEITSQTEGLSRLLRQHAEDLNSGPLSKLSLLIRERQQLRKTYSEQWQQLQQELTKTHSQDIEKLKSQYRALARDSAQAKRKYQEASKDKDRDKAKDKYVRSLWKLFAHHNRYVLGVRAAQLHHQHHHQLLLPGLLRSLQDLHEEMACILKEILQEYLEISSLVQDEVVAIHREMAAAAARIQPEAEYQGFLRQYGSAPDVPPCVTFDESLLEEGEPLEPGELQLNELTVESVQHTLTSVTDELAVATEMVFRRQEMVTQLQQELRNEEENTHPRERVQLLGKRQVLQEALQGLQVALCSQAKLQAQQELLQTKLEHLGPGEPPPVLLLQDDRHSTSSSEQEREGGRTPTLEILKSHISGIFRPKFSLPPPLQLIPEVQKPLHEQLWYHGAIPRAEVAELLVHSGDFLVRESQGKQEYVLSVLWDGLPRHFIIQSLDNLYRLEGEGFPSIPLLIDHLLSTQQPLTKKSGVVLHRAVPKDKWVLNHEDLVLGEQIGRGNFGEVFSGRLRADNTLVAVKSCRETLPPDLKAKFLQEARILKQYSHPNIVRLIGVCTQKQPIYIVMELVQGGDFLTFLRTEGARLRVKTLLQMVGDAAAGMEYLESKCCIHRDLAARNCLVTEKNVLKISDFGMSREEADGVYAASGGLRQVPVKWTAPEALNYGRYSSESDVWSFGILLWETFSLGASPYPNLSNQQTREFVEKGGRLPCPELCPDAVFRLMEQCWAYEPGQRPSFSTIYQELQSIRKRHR

STK16 (human) = STK16 (human) (UniProt O75716)
MKNK2 (human) = MKNK2 (human) (UniProt Q9HBH9)
LIMK1 (human) = LIMK1 (human) (UniProt P53667)
PRKCD (human) = PRKCD (human) (UniProt Q05655)
IRAK4 (human) = IRAK4 (human) (UniProt Q9NWZ3)
[4] = test system: FLT3 (human), P36888 [D835H]
CHEK1 (human) = CHEK1 (human) (UniProt O14757)
Chain of CHEK1 (human) (O14757 whole entry, looked up): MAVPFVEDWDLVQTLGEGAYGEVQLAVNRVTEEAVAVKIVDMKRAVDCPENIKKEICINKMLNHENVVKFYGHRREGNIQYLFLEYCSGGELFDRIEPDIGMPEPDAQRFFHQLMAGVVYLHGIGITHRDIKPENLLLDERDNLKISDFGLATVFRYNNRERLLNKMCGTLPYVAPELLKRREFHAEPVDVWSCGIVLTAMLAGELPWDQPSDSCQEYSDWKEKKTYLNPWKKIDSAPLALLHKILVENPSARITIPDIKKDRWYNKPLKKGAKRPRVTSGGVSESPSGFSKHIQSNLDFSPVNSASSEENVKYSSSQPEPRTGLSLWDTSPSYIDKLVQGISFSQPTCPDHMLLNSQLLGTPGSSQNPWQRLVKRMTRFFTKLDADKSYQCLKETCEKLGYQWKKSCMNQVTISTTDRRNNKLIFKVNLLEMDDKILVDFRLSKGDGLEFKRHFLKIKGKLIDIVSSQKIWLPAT

AURKC (human) = AURKC (human) (UniProt Q9UQB9)
TXK (human) = TXK (human) (UniProt P42681)
TNK2 (human) = TNK2 (human) (UniProt Q07912)
AAK1 (human) = AAK1 (human) (UniProt Q2M2I8)
Chain of AAK1 (human) (Q2M2I8 whole entry, looked up): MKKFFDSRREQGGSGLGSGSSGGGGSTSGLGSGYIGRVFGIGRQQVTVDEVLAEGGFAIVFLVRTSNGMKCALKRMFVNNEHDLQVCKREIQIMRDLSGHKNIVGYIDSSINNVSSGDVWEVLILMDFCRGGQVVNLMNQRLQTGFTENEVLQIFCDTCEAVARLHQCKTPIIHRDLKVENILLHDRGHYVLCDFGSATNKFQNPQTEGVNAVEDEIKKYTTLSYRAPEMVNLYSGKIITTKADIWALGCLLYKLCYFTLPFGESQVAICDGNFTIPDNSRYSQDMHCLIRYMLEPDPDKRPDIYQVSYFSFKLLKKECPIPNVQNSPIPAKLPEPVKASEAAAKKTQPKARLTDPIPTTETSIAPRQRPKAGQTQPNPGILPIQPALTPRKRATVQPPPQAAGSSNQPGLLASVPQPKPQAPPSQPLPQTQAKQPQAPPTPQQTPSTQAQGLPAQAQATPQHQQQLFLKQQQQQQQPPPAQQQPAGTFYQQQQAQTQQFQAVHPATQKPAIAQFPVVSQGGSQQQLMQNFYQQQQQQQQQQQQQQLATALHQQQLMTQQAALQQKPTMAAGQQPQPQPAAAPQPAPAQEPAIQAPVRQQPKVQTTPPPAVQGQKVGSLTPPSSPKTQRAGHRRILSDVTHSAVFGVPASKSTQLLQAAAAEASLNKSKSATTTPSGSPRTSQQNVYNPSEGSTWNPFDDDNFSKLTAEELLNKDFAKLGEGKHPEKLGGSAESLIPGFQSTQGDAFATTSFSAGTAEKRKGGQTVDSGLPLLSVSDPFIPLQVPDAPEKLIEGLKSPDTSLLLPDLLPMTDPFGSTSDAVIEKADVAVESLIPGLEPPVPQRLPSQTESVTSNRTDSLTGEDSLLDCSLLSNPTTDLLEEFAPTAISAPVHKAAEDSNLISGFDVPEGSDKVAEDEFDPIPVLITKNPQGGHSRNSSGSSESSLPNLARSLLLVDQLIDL

PIP5K1A (human) = PIP5K1A (human) (UniProt Q99755)
Chain of PIP5K1A (human) (Q99755 whole entry, looked up): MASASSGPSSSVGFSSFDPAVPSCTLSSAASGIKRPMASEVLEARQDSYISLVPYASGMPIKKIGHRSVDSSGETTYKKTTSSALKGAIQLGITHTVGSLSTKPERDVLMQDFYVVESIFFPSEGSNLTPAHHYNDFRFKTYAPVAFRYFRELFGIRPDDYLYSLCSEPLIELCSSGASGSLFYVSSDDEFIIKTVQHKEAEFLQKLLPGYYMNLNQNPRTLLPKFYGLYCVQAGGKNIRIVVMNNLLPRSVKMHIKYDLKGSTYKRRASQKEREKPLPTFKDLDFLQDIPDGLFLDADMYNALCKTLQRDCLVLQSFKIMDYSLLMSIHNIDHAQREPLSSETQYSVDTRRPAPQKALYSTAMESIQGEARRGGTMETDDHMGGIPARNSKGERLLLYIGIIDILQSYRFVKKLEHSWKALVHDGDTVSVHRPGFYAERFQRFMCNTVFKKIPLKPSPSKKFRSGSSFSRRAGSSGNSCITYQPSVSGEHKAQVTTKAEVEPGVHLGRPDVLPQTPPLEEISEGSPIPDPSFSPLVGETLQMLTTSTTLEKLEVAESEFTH

PRKACB (human) = PRKACB (human) (UniProt P22694)
MAP3K6 (human) = MAP3K6 (human) (UniProt O95382)
[5] = test system: EGFR (human), P00533 [G719S]
DCLK3 (human) = DCLK3 (human) (UniProt Q9C098)
NEK7 (human) = NEK7 (human) (UniProt Q8TDX7)
Chain of NEK7 (human) (Q8TDX7 whole entry, looked up): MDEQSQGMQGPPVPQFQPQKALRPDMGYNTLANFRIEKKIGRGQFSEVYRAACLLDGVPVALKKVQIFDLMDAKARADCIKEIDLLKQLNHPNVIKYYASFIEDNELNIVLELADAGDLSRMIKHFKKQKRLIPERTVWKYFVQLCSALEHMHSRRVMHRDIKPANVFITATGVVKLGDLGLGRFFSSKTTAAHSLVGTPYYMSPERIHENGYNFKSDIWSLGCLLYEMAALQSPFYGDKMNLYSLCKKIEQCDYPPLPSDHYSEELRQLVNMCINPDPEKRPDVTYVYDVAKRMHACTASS

DCLK2 (human) = DCLK2 (human) (UniProt Q8N568)
HIPK4 (human) = HIPK4 (human) (UniProt Q8NE63)
Chain of HIPK4 (human) (Q8NE63 whole entry, looked up): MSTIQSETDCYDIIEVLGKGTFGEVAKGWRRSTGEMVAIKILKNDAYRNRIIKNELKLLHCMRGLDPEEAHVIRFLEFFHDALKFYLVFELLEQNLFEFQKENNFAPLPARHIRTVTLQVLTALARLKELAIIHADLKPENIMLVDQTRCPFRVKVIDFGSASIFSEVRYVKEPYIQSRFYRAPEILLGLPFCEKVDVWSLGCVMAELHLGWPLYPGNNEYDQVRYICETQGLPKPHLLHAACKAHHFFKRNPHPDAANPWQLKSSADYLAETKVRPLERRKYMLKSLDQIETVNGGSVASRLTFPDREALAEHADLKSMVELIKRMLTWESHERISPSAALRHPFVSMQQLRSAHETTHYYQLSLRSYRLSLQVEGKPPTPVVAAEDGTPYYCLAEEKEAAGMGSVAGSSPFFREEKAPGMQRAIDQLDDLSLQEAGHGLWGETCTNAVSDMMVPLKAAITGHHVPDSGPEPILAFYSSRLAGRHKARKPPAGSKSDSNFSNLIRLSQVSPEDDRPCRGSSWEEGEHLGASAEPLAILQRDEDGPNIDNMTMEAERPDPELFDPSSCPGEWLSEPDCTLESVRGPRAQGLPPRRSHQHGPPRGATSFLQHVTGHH

WEE2 (human) = WEE2 (human) (UniProt P0C1S8)

Chain of MATK (human) (P42679 whole entry, looked up): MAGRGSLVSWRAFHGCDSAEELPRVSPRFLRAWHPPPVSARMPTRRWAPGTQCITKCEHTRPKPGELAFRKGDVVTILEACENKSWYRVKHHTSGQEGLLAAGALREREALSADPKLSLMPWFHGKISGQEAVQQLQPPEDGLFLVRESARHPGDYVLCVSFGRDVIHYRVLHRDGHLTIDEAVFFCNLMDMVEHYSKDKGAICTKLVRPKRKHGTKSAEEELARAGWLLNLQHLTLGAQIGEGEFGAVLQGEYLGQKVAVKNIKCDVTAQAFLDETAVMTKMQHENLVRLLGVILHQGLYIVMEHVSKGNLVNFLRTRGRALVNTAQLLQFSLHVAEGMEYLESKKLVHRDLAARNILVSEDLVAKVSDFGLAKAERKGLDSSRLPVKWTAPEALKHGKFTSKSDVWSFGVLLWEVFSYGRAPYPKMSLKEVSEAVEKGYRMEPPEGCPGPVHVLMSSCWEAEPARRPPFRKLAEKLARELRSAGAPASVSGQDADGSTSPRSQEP
Chain of CDK5 (human) (Q00535 whole entry, looked up): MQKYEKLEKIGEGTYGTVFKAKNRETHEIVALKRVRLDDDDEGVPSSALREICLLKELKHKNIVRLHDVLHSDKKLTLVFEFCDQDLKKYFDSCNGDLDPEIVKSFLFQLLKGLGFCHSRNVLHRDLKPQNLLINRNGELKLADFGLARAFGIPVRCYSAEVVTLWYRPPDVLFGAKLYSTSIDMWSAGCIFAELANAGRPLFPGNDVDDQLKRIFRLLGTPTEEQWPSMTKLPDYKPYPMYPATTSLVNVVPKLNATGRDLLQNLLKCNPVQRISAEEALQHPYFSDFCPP

Cc1cc([C@@H](C)Nc2ccccc2C(=O)O)c2nc(N3CCOCC3)cc(=O)n2c1
kinase still bound, per cent of control [1]: 71%
kinase still bound, per cent of control (CDK5 (human)): 100%
kinase still bound, per cent of control (MATK (human)): 57%
kinase still bound, per cent of control (ICK (human)): 100%
kinase still bound, per cent of control (CSF1R (human)): 55%
kinase still bound, per cent of control (MAP3K5 (human)): 100%
kinase still bound, per cent of control (MELK (human)): 100%
kinase still bound, per cent of control (RIPK1 (human)): 100%
kinase still bound, per cent of control (PRKG1 (human)): 79%
kinase still bound, per cent of control [2]: 100%
kinase still bound, per cent of control [3]: 96%
kinase still bound, per cent of control (PRKACA (human)): 100%
kinase still bound, per cent of control (PTK2 (human)): 80%
kinase still bound, per cent of control (IKBKB (human)): 95%
kinase still bound, per cent of control (MAST1 (human)): 54%
kinase still bound, per cent of control (MAPK13 (human)): 100%
kinase still bound, per cent of control (RIOK1 (human)): 75%
kinase still bound, per cent of control (CSNK1G1 (human)): 77%
kinase still bound, per cent of control (CDC42BPB (human)): 100%
kinase still bound, per cent of control (DAPK1 (human)): 100%
kinase still bound, per cent of control (PAK4 (human)): 95%
kinase still bound, per cent of control (FES (human)): 100%
kinase still bound, per cent of control (STK16 (human)): 99%
kinase still bound, per cent of control (MKNK2 (human)): 100%
kinase still bound, per cent of control (LIMK1 (human)): 100%
kinase still bound, per cent of control (PRKCD (human)): 100%
kinase still bound, per cent of control (IRAK4 (human)): 100%
kinase still bound, per cent of control [4]: 32%
kinase still bound, per cent of control (CHEK1 (human)): 64%
kinase still bound, per cent of control (AURKC (human)): 91%
kinase still bound, per cent of control (TXK (human)): 100%
kinase still bound, per cent of control (TNK2 (human)): 100%
kinase still bound, per cent of control (AAK1 (human)): 91%
kinase still bound, per cent of control (PIP5K1A (human)): 100%
kinase still bound, per cent of control (PRKACB (human)): 62%
kinase still bound, per cent of control (MAP3K6 (human)): 94%
kinase still bound, per cent of control [5]: 100%
kinase still bound, per cent of control (DCLK3 (human)): 100%
kinase still bound, per cent of control (NEK7 (human)): 98%
kinase still bound, per cent of control (DCLK2 (human)): 100%
kinase still bound, per cent of control (HIPK4 (human)): 56%
kinase still bound, per cent of control (WEE2 (human)): 100%
